Data: patent US12416002B2, “Analysis system for orthogonal access to and tagging of biomolecules in cellular compartments” (ILLUMINA, INC., priority 2016, dated 2025)

Tests used:
nuclei of K562 cells = assay: Reverse transcription/quantitative PCR of cDNA synthesis from nuclear mRNA (Example 9, Table 4); format: cell-based, human
Description: Pitstop-2 treatment increases RNA output by improving cDNA synthesis from nuclear mRNA. K562 cells were lysed with 0.1% NP40. The nuclei and cytoplasm were separated and the nuclei were washed twice, then a reverse transcription/quantitative PCR protocol was performed (ThermoFisher Maxima HT RT kit, Kapa qPCR kit, RPLPO PCR primer) with (a) no additive, (b) 0.1% SDS, or (c) 30 μM Pitstop-2. The deltaCt between no reverse transcription and reverse transcription was used as the metric to report relative cDNA synthesis efficiency. Pitstop-2 treatment boosted cDNA synthesis from nuclei 4-5 fold over untreated nuclei (Table 4).

[1] = tested on: K562 (human lymphoma cell line) nuclear content; assay: Sequencing of transposition (ATAC-seq) libraries from K562 nuclear content (Example 5, FIG. 4); format: cell-based
From the text: DNA libraries were generated from K562 (human lymphoma cell line) nuclear content using methods as described in the preceding examples. […] As shown in FIG. 4A for the ATAC-seq profile over a portion of Chr 12, the libraries had targeted predominantly intergenic regions at all Pitstop-2 concentrations.

[2] = tested on: Isolated nuclei of K562 cells; assay: Visualization of FAM-labeled transposome access to nuclei (Example 3, FIG. 3); format: cell-based, human; conditions: Pitstop-2 10 μM, 30 μM, 60 μM vs 2% DMSO control
Description: (§1) Using a standard cell culture protocol, 1×10^6 K562 cells (human lymphoma cell line) were collected from tissue culture flasks for tagmentation reaction. All cell pelleting/centrifugation steps were performed at 300×g for 3 min at 4° C. Freshly isolated cells were centrifuged and re-suspended in ice cold PBS (phosphate-buffered saline). The cells were pelleted again and incubated on ice while being suspended in 200 μL ice cold cell lysis buffer (Tris/NaCl/octylphenoxypolyethoxyethanol (IGEPAL CA-630 detergent)) for 5 min. Following this, nuclei were spun down for 3 min at 300×g, washed once with 200 of lysis buffer, and pelleted nuclei were transposed with Nextera Tn5 Transposase (TDE1) for 30 min at 55° C. in 1× Tagment DNA buffer (PN:15027866), supplemented with (a) Pitstop-2 in DMSO to yield 30 μM final Pitstop-2 concentration (test nuclei) or (b) 2% DMSO (control nuclei). Nuclei from each sample were pelleted and most of the supernatant was carefully removed.
The method of Example 1 was used to import FAM-labeled transposome complexes into nuclear compartments. Nuclei were isolated and treated as described in Example 1 using Nextera Tn5 transposase complexed with transposon sequence labeled during oligonucleotide synthesis at the 5′-end with FAM (6-FAM, Integrated DNA Technologies), and using the 2% DMSO control, and varying concentrations of Pitstop-2 (10 μM, 30 μM, and 60 μM).

nuclei [3] = assay: Flow cytometry of bead capture of FAM-labeled transposed nuclear material (Table 2); format: cell-based
Isolated nuclei [4] = assay: qPCR (Cq) of library yield from nuclei transposed with Nextera Tn5 in presence of Pitstop-2 (Example 4, Table 1A); format: cell-based, human; conditions: for Cq-Pitstop-2: 50,000 nuclei, 25 cy qPCR
Description: as §1, with “([…])” for “(a) Pitstop-2 in DMSO to yield 30 μM final Pitstop-2 concentration (test nuclei)”, “([…]).” for “(b) 2% DMSO (control nuclei).”
(§2) One Cq value roughly corresponds to two fold difference in DNA Input. […]

Isolated nuclei [5] = assay: qPCR (Cq) of library yield, varying Pitstop-2 with Tn5 and TsTn5 transposases (Table 1B); format: cell-based, human
From the text: as §2
Additional experiments were run using varying concentrations of Pitstop-2 and the Tn5 and TsTn5 transposases.

Mouse (3T3) nuclei = assay: Single-cell ATAC-seq in droplets (Example 14, FIG. 11); format: cell-based
Description: Mouse (3T3) nuclei were treated with 0 μM, 30 μM, and 60 μM Pitstop-2 during cell lysis and transposition of nuclei. Pitstop-2 was used to open up nuclear pores and to allow increased transposition of open chromatin. A defined number of transposed nuclei set to ensure single nuclei occupancy was loaded into a QX200 Bio-Rad droplet generator with indexed beads designed to produce single-cell ATAC-seq libraries. Single cell libraries were PCR-amplified in droplets and then subjected to purification, and sequencing on a NextSeq® 550 Sequencing System.
Treatment of nuclei with Pitstop-2 allows more efficient transposition and increased unique coverage of open chromatin. In the presence of Pitstop-2, transposases target additional open chromatin regions outside of transcription start sites (TSS) (see FIG. 11B). […] Also observed were an alignment of pooled ATAC-seq reads generated with 0 μM, 30 μM, and 60 μM Pitstop-2 around GAPDH gene at chromosome 6 and an alignment of pooled ATAC-seq reads generated with 0 μM, 30 μM, and 60 μM Pitstop-2 around RPL10 gene at chromosome X (data not shown).

unpurified nuclei = assay: Yield of ATAC-seq library from unpurified nuclei (Example 8, Table 3); format: cell-based; conditions: for Yield (nM) 150-1000 bp: 3% DMSO
Description: The concentration of each library was determined on the BioAnalyzer between the library range of 150-1000 bps plotted for each Pitstop-2 concentration (FIG. 7A). Additional experiments run at varying Pitstop-2 concentrations (5, 10, 30, 50, 100, and 200 μM) produced enhanced library yield over libraries produced in the absence of Pitstop-2 as shown by spectrophotometric analysis (Table 3).

nuclei [6] = assay: Agarose gel of indexed, amplified libraries of transposed nuclear DNA (Example 6, FIG. 5); format: cell-based; conditions: Pitstop-2 0, 10, 30, 60 μM
Description: Genomic DNA transposed with Nextera Tn5 Kit in the presence of Pitstop-2 (at concentrations of 0, 10, 30, and 60 μM) as described above was released from nuclei and was captured onto indexed beads containing oligonucleotide capture sequences. Bead-captured DNA was further gap-fill ligated to covalently link both strands of genomic DNA to common sequences (including unique indices) and amplified by PCR. […] Band intensity increases correlated with increases in Pitsthop-2 concentration. Corresponding DNA fragments covered by distinct number of nucleosomes of resulted libraries contained “nucleosomal banding,” indicating successful ATAC-seq tagmentation at regions free of nucleosomes.

Compound: O=C1N=C(NS(=O)(=O)c2cccc3ccccc23)SC1=Cc1ccc(Br)cc1 [Pitstop-2, N-[5-(4-bromobenzylidene)-4-oxo-4,5-dihydro-1,3-thiazol-2-yl]naphthalene-1-sulfonamide]
- boost of cDNA synthesis from nuclei over untreated nuclei (nuclei of K562 cells; 30 μM Pitstop-2): 4-5 fold
- DeltaCt (no reverse transcription vs reverse transcription; relative cDNA synthesis efficiency) (nuclei of K562 cells; Nuclei +30 μM Pitstop-2): 7.19
- ATAC-seq profile, normalized coverage over promoter and coding regions ([1]; 30 and 60 μM Pitstop-2, FIG. 4C): improved the ATAC-seq profile over controls
- diversity and uniqueness of whole genome sequencing coverage ([1]; Pitstop-2-treated samples over controls, FIG. 4B): better diversity and uniqueness
- access to chromatin regions (sequenced libraries) ([1]; Pitstop-2 treatment): enhanced access to transposase-accessible intergenic and open chromatin regions
- influx of FAM-labeled transposomes into nuclei [2]: increased influx of FAM-labeled transposomes into the nuclear space
- Mean (MFU), bead capture (nuclei [3]; Pitstop-2 10 μM): 1297 MFU
- Mean (MFU), bead capture (nuclei [3]; Pitstop-2 30 μM): 1439 MFU
- Mean (MFU), bead capture (nuclei [3]; Pitstop-2 60 μM): 1488 MFU
- bead capture rates of FAM-labeled transposed libraries (nuclei [3]; Pitstop-2 treatment vs control pools): enhanced bead capture rates over control pools
- library yield from intact nuclei vs untreated control (Isolated nuclei [4]; Pitstop-2 0 to 80 uM): increases library yield compared to the untreated control
- ΔCq-Pitstop-2 vs. Control (Isolated nuclei [4]; Pitstop-2 5 uM vs 0.05% DMSO control): −0.2
- Cq-Pitstop-2 (Isolated nuclei [4]; Pitstop-2 5 uM): 19.91
- ΔCq-Pitstop-2 vs. Control (Isolated nuclei [4]; Pitstop-2 10 uM vs 0.10% DMSO control): −0.65
- Cq-Pitstop-2 (Isolated nuclei [4]; Pitstop-2 10 uM): 20.00
- ΔCq-Pitstop-2 vs. Control (Isolated nuclei [4]; Pitstop-2 20 uM vs 0.20% DMSO control): −1.48
- Cq-Pitstop-2 (Isolated nuclei [4]; Pitstop-2 20 uM): 19.36
- ΔCq-Pitstop-2 vs. Control (Isolated nuclei [4]; Pitstop-2 40 uM vs 0.40% DMSO control): −1.26
- Cq-Pitstop-2 (Isolated nuclei [4]; Pitstop-2 40 uM): 19.94
- ΔCq-Pitstop-2 vs. Control (Isolated nuclei [4]; Pitstop-2 80 uM vs 0.80% DMSO control): −2.06
- Cq-Pitstop-2 (Isolated nuclei [4]; Pitstop-2 80 uM): 19.24
- Cq (Isolated nuclei [5]; Transposome Tn5, Pitstop 50 μM): 22.21
- Cq (Isolated nuclei [5]; Transposome Tn5, Pitstop 100 μM): 23.17
- Cq (Isolated nuclei [5]; Transposome Tn5, Pitstop 200 μM): 23.105
- Cq (Isolated nuclei [5]; Transposome Tn5, Pitstop 300 μM): 23.67
- Cq (Isolated nuclei [5]; Transposome TsTn5, Pitstop 50 μM): 18.32
- Cq (Isolated nuclei [5]; Transposome TsTn5, Pitstop 100 μM): 18.52
- Cq (Isolated nuclei [5]; Transposome TsTn5, Pitstop 200 μM): 18.55
- Cq (Isolated nuclei [5]; Transposome TsTn5, Pitstop 300 μM): 19.475
- ATAC-seq peak overlap (MACS-2), integrity of the assay (Mouse (3T3) nuclei; 0, 30, 60 μM Pitstop-2, FIG. 11C): did not change the overall integrity of the assay
- total number of unique reads (Mouse (3T3) nuclei; increasing Pitstop-2 (0, 30, 60 μM), barcodes >1 k, >10 k, >100 k unique reads, FIG. 11A): increase in the total number of unique reads
- Yield (nM) 150-1000 bp (unpurified nuclei; Pitstop-2 5 μM): 7.3 nM
- Yield (nM) 150-1000 bp (unpurified nuclei; Pitstop-2 10 μM): 9.3 nM
- Yield (nM) 150-1000 bp (unpurified nuclei; Pitstop-2 20 μM): 20.6 nM
- Yield (nM) 150-1000 bp (unpurified nuclei; Pitstop-2 50 μM): 23.7 nM
- Yield (nM) 150-1000 bp (unpurified nuclei; Pitstop-2 100 μM): 15.7 nM
- Yield (nM) 150-1000 bp (unpurified nuclei; Pitstop-2 200 μM): 8.7 nM
- yield of ATAC-seq library on BioAnalyzer (unpurified nuclei; Pitstop-2 10 and 100 μM, FIG. 7A): increased the yield of an ATAC-seq library
- transposition yield by agarose gel electrophoresis (nuclei [6]): clear increase in transposition yield

Compound: CCCCCCCCCCCCOS(=O)(=O)[O-].[Na+] [SDS, sodium dodecyl sulfate]
- DeltaCt (no reverse transcription vs reverse transcription; relative cDNA synthesis efficiency) (nuclei of K562 cells; Nuclei +0.1% SDS): 2.47
